The source of these data is patent EP0199190A2, “Separating element for separating solid particles, suspended in a gaseous current, by centrifugal force in a cylindrical whirl chamber” (Anton Piller GmbH & Co. KG, priority 1985, dated 1986).

The nature of series [1]: acute toxicity in the mouse, orally and intravenously. The note with it: in vivo. On the procedure: (§1) As already stated, the compounds according to the invention show a marked antiplatelet aggregation activity. Moreover, their toxicity is very low. For example, the acute toxicity of the salt above referred by LM-PT bisulfate, was evaluated in the mouse orally and intravenously. The LD50 were about 400 mg/kg and about 100 mg/kg, respectively. The DPPV (disaggregating power percentage value) was evaluated for LM-PT bisulfate, by the ADP induced aggregation test ex vivo in the rat, orally. For a single dose of 100 mg/kg, the DPPV was 92-96%.

A further series relates to ADP induced aggregation. Kind of series: ADP induced aggregation test ex vivo in the rat, orally. The note with it: single dose of 100 mg/kg. On the procedure: as §1

Structures are written as SMILES.

A word on the LD50: it is the dose at which mortality reaches 50%. As to `Cn1cnc2c1c(=O)n(CCCCC(=O)CN1CCc3sccc3C1)c(=O)n2C` [LM-PT bisulfate, N-[2-Reto-6-(3,7-dimethylxanthine-1-yl)hexyl]-4,5,6,7-tetrahydro-thieno[3,2-c]pyridine], the 50% lethal dose (LD50) in series [1] (iv, intravenously) is around 100 mg/kg; in series [1] (po, orally), around 400 mg/kg. Moreover, the “DPPV (disaggregating power percentage value)” value with ADP induced aggregation is listed as 92-96%.
